Results published in the kinase profiling compilation of Christmann-Franck et al. (2016).
Blank lines part the entries; values can stand above or below the compound they belong to.

What was measured:
Assay in all cases: Caliper, Mobility shift assay off-chip
PTK2 (human) = PTK2 (human) (UniProt Q05397)
PRKX (human) = PRKX (human) (UniProt P51817)
EPHB2 (human) = EPHB2 (human) (UniProt P29323)
FGFR4 (human) = FGFR4 (human) (UniProt P22455)
VRK2 (human) = VRK2 (human) (UniProt Q86Y07)
EPHB3 (human) = EPHB3 (human) (UniProt P54753)
MAP2K7 (human) = MAP2K7 (human) (UniProt O14733)
CDK2 CCNE1 (human) = CDK2 CCNE1 (human) (UniProt P24864+P24941)
HCK (human) = HCK (human) (UniProt P08631)
AKT3 (human) = AKT3 (human) (UniProt Q9Y243)
STK17A (human) = STK17A (human) (UniProt Q9UEE5)
PLK2 (human) = PLK2 (human) (UniProt Q9NYY3)
ITK (human) = ITK (human) (UniProt Q08881)
[1] = test system: MAPK14 (human), Q16539 [T106M]
[2] = test system: PDGFRA (human), P16234 [V561D]
SRPK3 (human) = SRPK3 (human) (UniProt Q9UPE1)
RPS6KA2 KD1 KD2 (human) = RPS6KA2 KD1 KD2 (human) (UniProt Q15349)
MAPK9 (human) = MAPK9 (human) (UniProt P45984)
ABL2 (human) = ABL2 (human) (UniProt P42684)
LCK (human) = LCK (human) (UniProt P06239)
SGK2 (human) = SGK2 (human) (UniProt Q9HBY8)
MAPKAPK3 (human) = MAPKAPK3 (human) (UniProt Q16644)
PHKG2 (human) = PHKG2 (human) (UniProt P15735)
DCLK2 (human) = DCLK2 (human) (UniProt Q8N568)
CDK5 CDK5R1 p25 (human) = CDK5 CDK5R1 p25 (human) (UniProt Q15078+Q00535)
[3] = test system: FLT3 (human), P36888 [D835Y]
RPS6KA4 KD1 KD2 (human) = RPS6KA4 KD1 KD2 (human) (UniProt O75676)
PRKD1 (human) = PRKD1 (human) (UniProt Q15139)
AKT2 (human) = AKT2 (human) (UniProt P31751)
PAK7 (human) = PAK7 (human) (UniProt Q9P286)
FGFR2 (human) = FGFR2 (human) (UniProt P21802)
MET (human) = MET (human) (UniProt P08581)
CDC42BPA (human) = CDC42BPA (human) (UniProt Q5VT25)
TSSK2 (human) = TSSK2 (human) (UniProt Q96PF2)
TAOK3 (human) = TAOK3 (human) (UniProt Q9H2K8)
CAMK1D (human) = CAMK1D (human) (UniProt Q8IU85)
INSRR (human) = INSRR (human) (UniProt P14616)
FGR (human) = FGR (human) (UniProt P09769)
BMX (human) = BMX (human) (UniProt P51813)
SIK1 (human) = SIK1 (human) (UniProt P57059)
EPHB4 (human) = EPHB4 (human) (UniProt P54760)

PTK2 (human), sequence (Q05397 whole entry, looked up): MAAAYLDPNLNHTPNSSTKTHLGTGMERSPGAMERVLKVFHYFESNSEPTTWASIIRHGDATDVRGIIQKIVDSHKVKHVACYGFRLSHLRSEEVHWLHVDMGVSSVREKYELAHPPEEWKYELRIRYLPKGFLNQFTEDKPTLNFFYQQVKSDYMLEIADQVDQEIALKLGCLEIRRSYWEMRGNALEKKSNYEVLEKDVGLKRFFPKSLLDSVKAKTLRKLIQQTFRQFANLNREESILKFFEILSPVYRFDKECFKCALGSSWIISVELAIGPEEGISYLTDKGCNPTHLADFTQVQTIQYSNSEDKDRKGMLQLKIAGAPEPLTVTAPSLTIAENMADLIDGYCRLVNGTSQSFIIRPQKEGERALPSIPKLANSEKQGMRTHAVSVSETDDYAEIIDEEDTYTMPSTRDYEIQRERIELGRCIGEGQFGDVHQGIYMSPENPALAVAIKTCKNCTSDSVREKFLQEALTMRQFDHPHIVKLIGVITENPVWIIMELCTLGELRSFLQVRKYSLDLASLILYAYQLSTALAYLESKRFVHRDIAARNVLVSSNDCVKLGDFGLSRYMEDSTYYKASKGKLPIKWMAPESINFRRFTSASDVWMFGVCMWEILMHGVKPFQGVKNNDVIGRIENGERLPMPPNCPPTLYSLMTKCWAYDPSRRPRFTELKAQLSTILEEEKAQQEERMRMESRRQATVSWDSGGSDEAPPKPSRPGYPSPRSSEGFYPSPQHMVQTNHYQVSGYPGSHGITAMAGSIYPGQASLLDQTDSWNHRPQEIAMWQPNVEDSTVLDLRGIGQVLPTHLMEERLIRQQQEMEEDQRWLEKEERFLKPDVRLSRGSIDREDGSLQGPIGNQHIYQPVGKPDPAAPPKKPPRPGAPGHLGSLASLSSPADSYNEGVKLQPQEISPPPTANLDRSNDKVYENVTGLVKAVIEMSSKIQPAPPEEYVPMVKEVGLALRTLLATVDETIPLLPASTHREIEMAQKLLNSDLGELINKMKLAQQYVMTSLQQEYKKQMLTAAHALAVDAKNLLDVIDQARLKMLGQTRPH
SGK2 (human), sequence (Q9HBY8 whole entry, looked up): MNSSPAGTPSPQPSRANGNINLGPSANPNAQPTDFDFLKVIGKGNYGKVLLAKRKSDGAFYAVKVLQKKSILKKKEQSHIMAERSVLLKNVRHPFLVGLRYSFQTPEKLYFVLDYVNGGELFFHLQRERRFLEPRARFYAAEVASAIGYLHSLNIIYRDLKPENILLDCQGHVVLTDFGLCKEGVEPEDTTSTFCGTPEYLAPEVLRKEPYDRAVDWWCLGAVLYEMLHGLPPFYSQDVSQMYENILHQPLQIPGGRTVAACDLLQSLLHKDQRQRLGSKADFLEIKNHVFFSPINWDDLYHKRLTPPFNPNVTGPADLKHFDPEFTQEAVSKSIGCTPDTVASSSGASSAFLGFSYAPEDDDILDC
TAOK3 (human), sequence (Q9H2K8 whole entry, looked up): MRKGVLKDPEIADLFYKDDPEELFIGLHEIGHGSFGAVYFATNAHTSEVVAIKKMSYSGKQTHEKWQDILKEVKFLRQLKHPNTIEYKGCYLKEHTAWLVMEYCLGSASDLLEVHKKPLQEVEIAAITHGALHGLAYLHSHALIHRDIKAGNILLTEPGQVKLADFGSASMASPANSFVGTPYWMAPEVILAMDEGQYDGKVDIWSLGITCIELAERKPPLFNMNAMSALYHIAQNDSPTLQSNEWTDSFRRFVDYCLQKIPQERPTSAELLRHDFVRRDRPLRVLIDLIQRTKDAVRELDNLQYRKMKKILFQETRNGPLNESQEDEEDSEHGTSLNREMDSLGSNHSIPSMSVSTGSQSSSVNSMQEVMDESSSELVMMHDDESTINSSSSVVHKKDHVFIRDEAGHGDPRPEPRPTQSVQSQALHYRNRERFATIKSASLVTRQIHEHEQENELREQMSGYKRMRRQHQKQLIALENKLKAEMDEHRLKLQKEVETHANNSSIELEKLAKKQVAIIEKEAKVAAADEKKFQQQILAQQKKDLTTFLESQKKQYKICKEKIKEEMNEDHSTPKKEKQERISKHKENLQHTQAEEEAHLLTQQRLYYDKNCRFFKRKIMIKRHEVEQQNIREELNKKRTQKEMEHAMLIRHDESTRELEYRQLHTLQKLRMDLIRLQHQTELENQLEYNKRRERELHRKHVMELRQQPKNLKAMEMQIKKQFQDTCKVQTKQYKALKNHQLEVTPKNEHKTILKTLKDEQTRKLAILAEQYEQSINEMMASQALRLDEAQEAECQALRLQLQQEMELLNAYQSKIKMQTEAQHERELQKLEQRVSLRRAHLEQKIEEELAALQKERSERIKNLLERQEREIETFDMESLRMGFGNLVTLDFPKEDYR
PDGFRA (human), P16234 [V561D], sequence (P16234 whole entry V561D, looked up): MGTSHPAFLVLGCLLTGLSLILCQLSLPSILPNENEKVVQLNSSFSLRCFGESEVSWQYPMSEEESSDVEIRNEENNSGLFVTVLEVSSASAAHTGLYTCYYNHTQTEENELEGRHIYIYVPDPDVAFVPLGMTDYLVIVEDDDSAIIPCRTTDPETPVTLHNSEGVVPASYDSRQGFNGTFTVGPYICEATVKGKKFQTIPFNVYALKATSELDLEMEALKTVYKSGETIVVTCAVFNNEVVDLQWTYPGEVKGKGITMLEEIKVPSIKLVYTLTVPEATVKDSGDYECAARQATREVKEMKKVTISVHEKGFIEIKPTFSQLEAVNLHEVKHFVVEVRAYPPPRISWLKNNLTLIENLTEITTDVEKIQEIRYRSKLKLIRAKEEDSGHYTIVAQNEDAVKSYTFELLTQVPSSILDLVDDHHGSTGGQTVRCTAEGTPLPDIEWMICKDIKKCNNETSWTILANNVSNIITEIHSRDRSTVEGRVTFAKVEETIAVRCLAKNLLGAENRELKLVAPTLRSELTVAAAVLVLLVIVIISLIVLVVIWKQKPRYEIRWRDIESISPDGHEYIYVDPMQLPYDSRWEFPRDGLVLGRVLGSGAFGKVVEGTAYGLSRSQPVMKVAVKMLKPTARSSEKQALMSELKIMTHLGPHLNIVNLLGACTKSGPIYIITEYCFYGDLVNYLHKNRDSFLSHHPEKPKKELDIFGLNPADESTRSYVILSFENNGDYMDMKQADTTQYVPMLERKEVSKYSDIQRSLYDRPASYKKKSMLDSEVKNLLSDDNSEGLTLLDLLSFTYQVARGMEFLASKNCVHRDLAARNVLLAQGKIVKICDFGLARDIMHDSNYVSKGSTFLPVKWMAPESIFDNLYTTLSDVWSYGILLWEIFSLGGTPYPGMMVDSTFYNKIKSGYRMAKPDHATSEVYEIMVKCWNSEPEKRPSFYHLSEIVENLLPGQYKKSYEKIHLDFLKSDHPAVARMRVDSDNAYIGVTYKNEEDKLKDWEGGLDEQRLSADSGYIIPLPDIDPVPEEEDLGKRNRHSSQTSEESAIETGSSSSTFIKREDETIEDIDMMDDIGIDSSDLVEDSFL
EPHB2 (human), sequence (P29323 whole entry, looked up): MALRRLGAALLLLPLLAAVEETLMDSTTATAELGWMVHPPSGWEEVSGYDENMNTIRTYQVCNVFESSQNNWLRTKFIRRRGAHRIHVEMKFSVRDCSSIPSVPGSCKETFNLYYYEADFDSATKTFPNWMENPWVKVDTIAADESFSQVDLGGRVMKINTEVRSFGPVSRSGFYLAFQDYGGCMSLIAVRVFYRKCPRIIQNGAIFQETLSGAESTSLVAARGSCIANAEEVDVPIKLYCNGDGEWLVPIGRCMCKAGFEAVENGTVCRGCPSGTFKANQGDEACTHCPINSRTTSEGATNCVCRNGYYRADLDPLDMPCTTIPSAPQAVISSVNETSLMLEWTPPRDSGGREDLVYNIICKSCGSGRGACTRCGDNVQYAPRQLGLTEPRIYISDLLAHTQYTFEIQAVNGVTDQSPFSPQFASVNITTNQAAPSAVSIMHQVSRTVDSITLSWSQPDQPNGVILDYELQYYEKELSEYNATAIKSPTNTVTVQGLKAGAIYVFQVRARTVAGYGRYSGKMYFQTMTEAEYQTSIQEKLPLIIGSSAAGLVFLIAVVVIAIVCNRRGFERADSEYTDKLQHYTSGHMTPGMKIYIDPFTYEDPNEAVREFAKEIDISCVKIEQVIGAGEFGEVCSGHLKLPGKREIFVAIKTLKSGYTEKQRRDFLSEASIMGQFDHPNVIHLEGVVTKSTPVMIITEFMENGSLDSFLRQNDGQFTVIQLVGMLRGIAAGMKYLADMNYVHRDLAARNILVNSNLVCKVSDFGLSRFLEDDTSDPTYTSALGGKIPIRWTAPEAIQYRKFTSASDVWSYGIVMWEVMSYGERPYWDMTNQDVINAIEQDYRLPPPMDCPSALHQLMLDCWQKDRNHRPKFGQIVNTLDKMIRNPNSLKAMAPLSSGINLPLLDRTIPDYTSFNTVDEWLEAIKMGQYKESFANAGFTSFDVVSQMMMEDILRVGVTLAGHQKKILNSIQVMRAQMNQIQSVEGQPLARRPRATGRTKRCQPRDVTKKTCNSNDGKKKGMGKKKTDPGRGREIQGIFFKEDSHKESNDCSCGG
CDK5 CDK5R1 p25 (human), sequence (Q00535 whole entry, looked up): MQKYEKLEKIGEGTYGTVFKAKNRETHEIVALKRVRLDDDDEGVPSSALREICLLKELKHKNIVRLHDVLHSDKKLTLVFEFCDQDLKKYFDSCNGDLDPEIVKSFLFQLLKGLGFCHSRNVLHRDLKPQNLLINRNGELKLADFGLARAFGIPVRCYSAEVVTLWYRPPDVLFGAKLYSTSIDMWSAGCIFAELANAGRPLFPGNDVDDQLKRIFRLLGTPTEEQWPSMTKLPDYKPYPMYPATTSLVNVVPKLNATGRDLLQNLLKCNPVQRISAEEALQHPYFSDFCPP
CDK5 CDK5R1 p25 (human), sequence (Q15078 whole entry, looked up): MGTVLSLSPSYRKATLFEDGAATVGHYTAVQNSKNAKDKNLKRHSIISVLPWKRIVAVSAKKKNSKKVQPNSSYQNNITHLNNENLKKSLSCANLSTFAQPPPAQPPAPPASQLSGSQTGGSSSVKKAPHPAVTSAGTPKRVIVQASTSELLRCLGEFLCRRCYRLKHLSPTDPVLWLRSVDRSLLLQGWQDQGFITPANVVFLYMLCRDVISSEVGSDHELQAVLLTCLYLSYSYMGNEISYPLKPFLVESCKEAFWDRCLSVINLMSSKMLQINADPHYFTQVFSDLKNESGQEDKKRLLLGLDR

residual activity (PTK2 (human); compound 10.0 µM): 93%
SMILES: CC(C)(C)c1nc2c3ccc(F)cc3c3c(=O)[nH]ccc3c2[nH]1

residual activity (PRKX (human); compound 1.0 µM): 70%
residual activity (EPHB2 (human); compound 1.0 µM): 103%
residual activity (FGFR4 (human); compound 1.0 µM): 113%
residual activity (VRK2 (human); compound 1.0 µM): 117%
residual activity (EPHB3 (human); compound 1.0 µM): 93%
residual activity (MAP2K7 (human); compound 1.0 µM): 106%
residual activity (CDK2 CCNE1 (human); compound 1.0 µM): 107%
residual activity (PTK2 (human); compound 1.0 µM): 80%
residual activity (HCK (human); compound 1.0 µM): 99%
residual activity (AKT3 (human); compound 1.0 µM): 103%
residual activity (STK17A (human); compound 1.0 µM): 3%
residual activity (PLK2 (human); compound 1.0 µM): 112%
residual activity (ITK (human); compound 1.0 µM): 85%
residual activity ([1]; compound 1.0 µM): 95%
residual activity ([2]; compound 1.0 µM): 14%
residual activity (SRPK3 (human); compound 1.0 µM): 113%
residual activity (RPS6KA2 KD1 KD2 (human); compound 1.0 µM): 120%
residual activity (MAPK9 (human); compound 1.0 µM): 84%
residual activity (ABL2 (human); compound 1.0 µM): 97%
residual activity (LCK (human); compound 1.0 µM): 76%
residual activity (SGK2 (human); compound 1.0 µM): 94%
residual activity (MAPKAPK3 (human); compound 1.0 µM): 107%
residual activity (PHKG2 (human); compound 1.0 µM): 74%
residual activity (DCLK2 (human); compound 1.0 µM): 116%
residual activity (CDK5 CDK5R1 p25 (human); compound 1.0 µM): 46%
residual activity ([3]; compound 1.0 µM): 2%
residual activity (RPS6KA4 KD1 KD2 (human); compound 1.0 µM): 59%
residual activity (PRKD1 (human); compound 1.0 µM): 53%
residual activity (AKT2 (human); compound 1.0 µM): 98%
residual activity (PAK7 (human); compound 1.0 µM): 115%
residual activity (FGFR2 (human); compound 1.0 µM): 86%
residual activity (MET (human); compound 1.0 µM): 137%
residual activity (CDC42BPA (human); compound 1.0 µM): 97%
residual activity (TSSK2 (human); compound 1.0 µM): 52%
residual activity (TAOK3 (human); compound 1.0 µM): 10%
residual activity (CAMK1D (human); compound 1.0 µM): 86%
residual activity (INSRR (human); compound 1.0 µM): 102%
residual activity (FGR (human); compound 1.0 µM): 97%
residual activity (BMX (human); compound 1.0 µM): 94%
residual activity (SIK1 (human); compound 1.0 µM): 12%
residual activity (EPHB4 (human); compound 1.0 µM): 110%
SMILES: O=C(NCCCNc1nc(Nc2cccc(NC(=O)N3CCCC3)c2)ncc1I)c1cccs1

residual activity (PRKX (human); compound 10.0 µM): 91%
residual activity (EPHB2 (human); compound 10.0 µM): 99%
residual activity (FGFR4 (human); compound 10.0 µM): 44%
residual activity (VRK2 (human); compound 10.0 µM): 115%
residual activity (EPHB3 (human); compound 10.0 µM): 113%
residual activity (MAP2K7 (human); compound 10.0 µM): 30%
residual activity (CDK2 CCNE1 (human); compound 10.0 µM): 99%
residual activity (PTK2 (human); compound 10.0 µM): 76%
residual activity (HCK (human); compound 10.0 µM): 63%
residual activity (AKT3 (human); compound 10.0 µM): 26%
residual activity (STK17A (human); compound 10.0 µM): 15%
residual activity (PLK2 (human); compound 10.0 µM): 107%
residual activity (ITK (human); compound 10.0 µM): 78%
residual activity ([1]; compound 10.0 µM): 79%
residual activity ([2]; compound 10.0 µM): 10%
residual activity (SRPK3 (human); compound 10.0 µM): 58%
residual activity (RPS6KA2 KD1 KD2 (human); compound 10.0 µM): 8%
residual activity (MAPK9 (human); compound 10.0 µM): 77%
residual activity (ABL2 (human); compound 10.0 µM): 78%
residual activity (LCK (human); compound 10.0 µM): 65%
residual activity (SGK2 (human); compound 10.0 µM): 26%
residual activity (MAPKAPK3 (human); compound 10.0 µM): 84%
residual activity (PHKG2 (human); compound 10.0 µM): 33%
residual activity (DCLK2 (human); compound 10.0 µM): 105%
residual activity (CDK5 CDK5R1 p25 (human); compound 10.0 µM): 82%
residual activity ([3]; compound 10.0 µM): 10%
residual activity (RPS6KA4 KD1 KD2 (human); compound 10.0 µM): 8%
residual activity (PRKD1 (human); compound 10.0 µM): 32%
residual activity (AKT2 (human); compound 10.0 µM): 15%
residual activity (PAK7 (human); compound 10.0 µM): 121%
residual activity (FGFR2 (human); compound 10.0 µM): 65%
residual activity (MET (human); compound 10.0 µM): 17%
residual activity (CDC42BPA (human); compound 10.0 µM): 85%
residual activity (TSSK2 (human); compound 10.0 µM): 72%
residual activity (TAOK3 (human); compound 10.0 µM): 66%
residual activity (CAMK1D (human); compound 10.0 µM): 47%
residual activity (INSRR (human); compound 10.0 µM): 71%
residual activity (FGR (human); compound 10.0 µM): 36%
residual activity (BMX (human); compound 10.0 µM): 25%
residual activity (SIK1 (human); compound 10.0 µM): 25%
residual activity (EPHB4 (human); compound 10.0 µM): 83%
SMILES: COc1ccc(C#Cc2ccc3ncc4ncn(-c5ccc(CCN)cc5)c4c3c2)cc1
